Experimental data as given in patent US6867284B1, “Peptide inhibitors of hepatitis C virus NS3 protease” (Istituto di Ricerche di Biologia Molecolare P. Angeletti …, priority 1998, dated 2005).

Each molecule was assayed against T1, HCV NS3 protease (Hepatitis C virus genotype 1b, UniProt P26663) (assay: Inhibition of NS3 protease (HPLC cleavage assay, NS3/4A complex with Pep4AK, substrate peptide 4AB)). Conditions: not given.
T1 construct: an NS3/4A complex comprising the NS3 protease domain
Type: biochemical
Protocol: Buffer solutions containing 80 μM Pep4AK were preincubated for 10 minutes with 10-200 nM protease and reactions were started by addition of substrate. Six duplicate data points at different substrate concentrations were used to calculate kinetic parameters. Incubation times were chosen in order to obtain <7% substrate conversion and reactions were stopped by addition of 40 μl 1% TFA. Cleavage of peptide substrates was determined by HPLC using a Merck-Hitachi chromatograph equipped with an autosampler. 80 μl samples were injected on a Lichrospher C18 reversed phase cartridge column (4×74 mm, 5 μm, Merck) and fragments were separated using a 10-40% acetonitrile gradient a 5%/min using a flow rate of 2.5 ml/min. Peak detection was accomplished by monitoring both the absorbance at 220 nm and tyrosine fluorescence (λex=260 nm, λem=305 nm). Cleavage products were quantitated by integration of chromatograms with respect to appropriate standards. Kinetic parameters were calculated from nonlinear least-squares fit of initial rates as a function of substrate concentration with the help of a Kaleidagraph software, assuming Michaelis-Menten kinetics.
Ki values of peptide inhibitors were calculated from substrate titration experiments performed in the presence of increasing amounts of inhibitor. Experimental data sets were simultaneously fitted to eq.1 using a multicurve fit macro with the help of a Sigmaplot software: V=(VmaxS)/(Km(1+[…])+S); (eq.1)
Alternatively, Ki values were derived from IC50 values, calculated using a four-parameter logistic function, according to eq.2: IC50−(1+S/Km)Ki (eq.2)

T1 sequence (P26663 1027-1208, other chains not shown): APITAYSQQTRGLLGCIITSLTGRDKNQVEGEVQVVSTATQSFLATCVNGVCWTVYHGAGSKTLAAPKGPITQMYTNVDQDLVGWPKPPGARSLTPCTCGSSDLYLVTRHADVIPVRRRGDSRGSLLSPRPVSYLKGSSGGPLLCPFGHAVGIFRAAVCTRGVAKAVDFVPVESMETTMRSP

Molecule `CC(C)C[C@H](NC(=O)CC(CC(=O)O)c1ccccc1)C(=O)NC(CC(F)F)C(=O)C(=O)O` (mixture of isomers) [Compound 7j] has an IC50 of 26 µM.

Same assay, conditions: Table 3 capped dipeptide keto acids; read-out: IC50

First: CCCC(CCC)C(=O)N[C@@H](CC(C)C)C(=O)NC(CC(F)F)C(=O)C(=O)O (mixture of isomers) [Compound 7c]
Second: CC(C)C[C@H](NC(=O)CCCC(=O)O)C(=O)NC(CC(F)F)C(=O)C(=O)O (mixture of isomers) [Compound 7d]
The IC50 of the first is 13-fold higher: 78 µM for the first, 6 µM for the second.

First: CC(C)C[C@H](NC(=O)CC(C)(C)CC(=O)O)C(=O)NC(CC(F)F)C(=O)C(=O)O (mixture of isomers) [Compound 7e]
Second: CC(C)C[C@H](NC(=O)COCC(=O)O)C(=O)NC(CC(F)F)C(=O)C(=O)O (mixture of isomers) [Compound 7h]
The IC50 of the first is 8-fold lower: 4 µM for the first, 32 µM for the second.

`CC(C)C[C@H](NC(=O)CC(CC(=O)O)c1ccc(Cl)cc1)C(=O)NC(CC(F)F)C(=O)C(=O)O` (mixture of isomers) [Compound 7k] and `CC(C)C[C@H](NC(=O)[C@H](O)c1ccc(Cl)cc1)C(=O)NC(CC(F)F)C(=O)C(=O)O` (mixture of isomers) [Compound 8q] are within 1.5-fold of each other in IC50: 35 µM for the first, 25 µM for the second.

First: COC(=O)CC1(CC(=O)N[C@@H](CC(C)C)C(=O)NC(CC(F)F)C(=O)C(=O)O)CCCC1 (mixture of isomers) [Compound 7m]
Second: CC(C)C[C@H](NC(=O)CC1(CC(=O)O)CCCCC1)C(=O)NC(CC(F)F)C(=O)C(=O)O (mixture of isomers) [Compound 7q]
The IC50 of the first is 42-fold higher: 85 µM for the first, 2 µM for the second.

First: CC(C)C[C@H](NC(=O)CC1(CC(=O)NS(=O)(=O)c2ccccc2)CCCC1)C(=O)NC(CC(F)F)C(=O)C(=O)O (mixture of isomers) [Compound 7n]
Second: CC(C)C[C@H](NC(=O)C1(CCC(=O)O)CCCC1)C(=O)NC(CC(F)F)C(=O)C(=O)O (mixture of isomers) [Compound 7o]
The IC50 of the first is 3.1-fold lower: 7 µM for the first, 22 µM for the second.

`CC(C)C[C@H](NC(=O)Cc1cccc(CC(=O)O)c1)C(=O)NC(CC(F)F)C(=O)C(=O)O` (mixture of isomers) [Compound 8c] and `CC(C)C[C@H](NC(=O)Cc1ccc(CC(=O)O)cc1)C(=O)NC(CC(F)F)C(=O)C(=O)O` (mixture of isomers) [Compound 8d] are the same in IC50: 7 µM for the first, 7 µM for the second.

Compared with `CC(C)C[C@H](NC(=O)C(Sc1ccccc1)c1ccccc1)C(=O)NC(CC(F)F)C(=O)C(=O)O` (mixture of isomers) [Compound 8i], `CC(C)C[C@H](NC(=O)C(Cc1ccccc1)c1ccccc1)C(=O)NC(CC(F)F)C(=O)C(=O)O` (mixture of isomers) [Compound 8j] is 3.6-fold higher in IC50: 28 µM for the first, 100 µM for the second. The first is the more potent here.

Compared with `COc1ccc(C(Oc2ccccc2)C(=O)N[C@@H](CC(C)C)C(=O)NC(CC(F)F)C(=O)C(=O)O)cc1` (mixture of isomers) [Compound 8k], `COc1ccc([C@@H](O)C(=O)N[C@@H](CC(C)C)C(=O)NC(CC(F)F)C(=O)C(=O)O)cc1` (mixture of isomers) [Compound 8p] is 2.9-fold lower in IC50: 72 µM for the first, 25 µM for the second. The second is the more potent here.

First: CC(C)C[C@H](NC(=O)[C@H](O)C1CCCCC1)C(=O)NC(CC(F)F)C(=O)C(=O)O (mixture of isomers) [Compound 8l]
Second: CC(C)C[C@H](NC(=O)C1OC(=O)CC12CCCC2)C(=O)NC(CC(F)F)C(=O)C(=O)O (mixture of isomers) [Compound 8m]
The IC50 of the first is 4.3-fold lower: 14 µM for the first, 60 µM for the second.

First: CC(C)C[C@H](NC(=O)[C@H](O)c1ccccc1)C(=O)NC(CC(F)F)C(=O)C(=O)O (mixture of isomers) [Compound 8n]
Second: CC(C)C[C@H](NC(=O)[C@H](O)c1ccccc1Cl)C(=O)NC(CC(F)F)C(=O)C(=O)O (mixture of isomers) [Compound 8r]
The IC50 of the first is 14-fold lower: 6 µM for the first, 82 µM for the second.

Molecule `CC(C)C[C@H](NC(=O)[C@H](O)c1ccc(C(F)(F)F)cc1)C(=O)NC(CC(F)F)C(=O)C(=O)O` (mixture of isomers) [Compound 8o] has an IC50 of 56 µM.

Same assay, conditions: Table 4 indoline keto acids and related; read-out: IC50

`CCCCC1(C(=O)NC(CC(C)C)C(=O)NC(CC(F)F)C(=O)C(=O)O)Cc2ccccc2N1` (mixture of isomers) [Compound 9b] and `CC(C)CCC1(C(=O)N[C@@H](CC(C)C)C(=O)NC(CC(F)F)C(=O)C(=O)O)Cc2ccccc2N1` (mixture of isomers) [Compound 9f] are within 1.5-fold of each other in IC50: 87 µM for the first, 120 µM for the second.

Going from `CC(C)C[C@H](NC(=O)C1(C(C)C)Cc2ccccc2N1)C(=O)NC(CC(F)F)C(=O)C(=O)O` (mixture of isomers) [Compound 9c] to `CC(C)C[C@H](NC(=O)C1(CC(C)C)Cc2ccccc2N1)C(=O)NC(CC(F)F)C(=O)C(=O)O` (mixture of isomers) [Compound 9d], the IC50 falls from 92 µM to 16 µM (5.8-fold). The second is the more potent here.

`CC(C)=CCC1(C(=O)NC(CC(C)C)C(=O)NC(CC(F)F)C(=O)C(=O)O)Cc2ccccc2N1` (mixture of isomers) [Compound 9e] and `CC(C)C[C@H](NC(=O)C1(CC(=O)O)Cc2ccccc2N1)C(=O)NC(CC(F)F)C(=O)C(=O)O` (mixture of isomers) [Compound 9n] are within 1.5-fold of each other in IC50: 69 µM for the first, 81 µM for the second.

`CCC(C)CC1(C(=O)N[C@@H](CC(C)C)C(=O)NC(CC(F)F)C(=O)C(=O)O)Cc2ccccc2N1` (mixture of isomers) [Compound 9h] and `COCCOCC1(C(=O)N[C@@H](CC(C)C)C(=O)NC(CC(F)F)C(=O)C(=O)O)Cc2ccccc2N1` (mixture of isomers) [Compound 9m] are within 1.5-fold of each other in IC50: 81 µM for the first, 57 µM for the second.

`CC(C)C[C@H](NC(=O)C1(CC2CCC2)Cc2ccccc2N1)C(=O)NC(CC(F)F)C(=O)C(=O)O` (mixture of isomers) [Compound 9j] and `CC(C)C[C@H](NC(=O)C1(CC2CCCCC2)Cc2ccccc2N1)C(=O)NC(CC(F)F)C(=O)C(=O)O` (mixture of isomers) [Compound 9l] are within 1.5-fold of each other in IC50: 34 µM for the first, 31 µM for the second.

Going from `CC(C)C[C@H](NC(=O)C1(C2CCCCC2)Cc2ccccc2N1)C(=O)NC(CC(F)F)C(=O)C(=O)O` (mixture of isomers) [Compound 9k] to `CC(C)C[C@H](NC(=O)C1(Cc2ccc(Cl)s2)Cc2ccccc2N1)C(=O)NC(CC(F)F)C(=O)C(=O)O` (mixture of isomers) [Compound 9w], the IC50 falls from 69 µM to 3 µM (23-fold). The second is the more potent here.

Going from `CC(C)C[C@H](NC(=O)C1(Cc2ccccc2)Cc2ccccc2N1)C(=O)NC(CC(F)F)C(=O)C(=O)O` (mixture of isomers) [Compound 9o] to `CC(C)C[C@H](NC(=O)C1(Cc2cccc(Br)c2)Cc2ccccc2N1)C(=O)NC(CC(F)F)C(=O)C(=O)O` (mixture of isomers) [Compound 9r], the IC50 rises from 45 µM to 100 µM (2.2-fold). The first is the more potent here.

Going from `CC(C)C[C@H](NC(=O)C1(C(C)c2ccccc2)Cc2ccccc2N1)C(=O)NC(CC(F)F)C(=O)C(=O)O` (mixture of isomers) [Compound 9p] to `COc1cccc(CC2(C(=O)N[C@@H](CC(C)C)C(=O)NC(CC(F)F)C(=O)C(=O)O)Cc3ccccc3N2)c1` (mixture of isomers) [Compound 9s], the IC50 falls from 88 µM to 38 µM (2.3-fold). The second is the more potent here.

Going from `CC(C)CC(NC(=O)C1(Cc2cccc(C#N)c2)Cc2ccccc2N1)C(=O)NC(CC(F)F)C(=O)C(=O)O` (mixture of isomers) [Compound 9t] to `CC(C)C[C@H](NC(=O)C1(Cc2cccc(Oc3ccccc3)c2)Cc2ccccc2N1)C(=O)NC(CC(F)F)C(=O)C(=O)O` (mixture of isomers) [Compound 9v], the IC50 rises from 9 µM to 24 µM (2.7-fold).

First: CC(C)C[C@H](NC(=O)C1(CC(C)C)Cc2ccc(Oc3ccccc3)cc2N1)C(=O)NC(CC(F)F)C(=O)C(=O)O (mixture of isomers) [Compound 10c]
Second: CC(C)C[C@H](NC(=O)C1Cc2ccc(OCC3CC3)cc2N1)C(=O)NC(CC(F)F)C(=O)C(=O)O (mixture of isomers) [Compound 10d]
The IC50 of the first is 1.5-fold higher: 100 µM for the first, 66 µM for the second. The second is the more potent here.
